Patent US20160115447A1, “COMPOSITIONS AND METHODS FOR IMPROVING INDUCED NEURON GENERATION” (PRESIDENT AND FELLOWS OF HARVARD COLLEGE, priority 2013, published 2016)
Where two headings read alike, the source gives them in different places.

Tests used:
[1] = tested on: human fibroblasts; conditions: FIG. 7
[2] = tested on: FACS-sorted iMNs
[3] = tested on: Hb9::GFP+ intermediates exhibiting a non-neuronal morphology; conditions: FIG. 6
[4] = tested on: mouse adult fibroblasts; experiment: transcription factor-mediated conversion of mouse adult fibroblasts into Hb9::GFP+ spinal motor neurons (iMN conversion screen); format: cell-based; conditions: days 1-5, 6-10 or 11-15 of reprogramming, FIG. 4
Description: FIGS. 1A and 1B illustrate the screens performed to identify small molecule enhancers of induced motor neuron (iMN) conversion. FIG. 1A is a schematic illustration depicting the primary screen for small molecules enhancers of iMN conversion via viral transduction with 7 transcription factors performed on fibroblasts harvested from 2 month old Hb9::GFP mice. FIG. 1B is a graphical illustration depicting the results of a secondary screen performed on the top hits identified by the primary screen depicted in FIG. 1A, pointing to two lead compounds as effective enhancers of iMN conversion.
To this end, a functional reprogramming screen was used to identify small molecules that increase the rate of transcription factor-mediated conversion of mouse adult fibroblasts into Hb9::GFP+ spinal motor neurons (FIGS. 1A and 1B). An inhibitor of Activin-like kinases 4/5/7 (FIG. 2A) and a Polo-like kinase I (PLK1) inhibitor (FIG. 2B) each increased induced motor neuron formation by 5-10-fold (FIG. 3). In combination, the chemicals increased the rate of induced motor neuron formation by 50-fold (FIG. 3).

[5] = tested on: fibroblasts transduced with Ascl1, Myt1l, and Brn2
Description: To determine if Activin inhibition increases conversion into other neuronal types, fibroblasts were transduced with Ascl1, Myt1l, and Brn2, transcription factors that induce the formation of non-motor neurons, and cultured the cells with or without the Activin inhibitor.

Cc1cccc(-c2[nH]ncc2-c2ccc3ncccc3n2)n1 [RepSox]
generation of patient specific human iMNs [1]: promotes generation
survival of FACS-sorted iMNs ([2]; SOD1G93A motor neurons, FIG. 5B): promotes survival
survival of FACS-sorted iMNs ([2]; wild-type (WT) motor neurons, FIG. 5A): promotes survival
survival of Hb9::GFP+ intermediates [3]: promotes survival
effect on iMN conversion by time of administration (pulse treatments) [4]: improved iMN conversion regardless of the time it is added to the culture medium
effect on iMN conversion by time of administration (pulse treatments) ([4]; listed as Activin inhibitor): effective when administered from days 1-5, 6-10, or 11-15
induced neuron (iN) conversion ([5]; FIG. 9): enhances induced neuron (iN) conversion
increase of the number of neurons generated ([5]; with versus without the Activin inhibitor): 10 fold

CC[C@@H]1C(=O)N(C)c2cnc(Nc3ccc(C(=O)NC4CCN(C)CC4)cc3OC)nc2N1C1CCCC1 [BI 2536, 4-[[(7R)-8-cyclopentyl-7-ethyl-5-methyl-6-oxo-7H-pteridin-2-yl]amino]-3-methoxy-N-(1-methylpiperidin-4-yl)benzamide]
effect on iMN conversion by time of administration (pulse treatments) [4]: improved conversion only during days 6-10
effect on iMN conversion by time of administration (pulse treatments) ([4]; listed as PLK1 inhibitor): only active during days 6-10
